Measurements reported in patent publication US9505780B2, “Thienopyranones as kinase and epigenetic inhibitors” (SignalRx Pharmaceuticals, Inc., priority 2014, dated 2016).

Experiments:
SKNBE (2) cells = test: Western blot of p-AKT and N-MYC in SKNBE(2) cells; format: cell-based, human; conditions: 24 hrs treatment, IGF stimulated
Description: Cells were stimulated with 50 ng/ml IGF for 30 min and used for lysate preparation. Proteins were quantitated by the BCA protein assay (Pierce). Equal amounts of protein were resolved by polyacrylamide gels, transferred to nitrocellulose membrane and probed by Western blot with the following primary antibodies: p-AKT(Ser473), API (Cell Signaling Technologies), N-MYC, CyclinD1 and β-actin (Santa Cruz Biotechnology).

BRD4 = BRD4 (Homo sapiens, UniProt O60885); test: BRD4 inhibition assay (region not distinguished); format: biochemical; conditions: for BRD4 inhibition: BRD4 regions 1 and 2
BRD4-1 = BRD4-1 (Homo sapiens (Human), UniProt O60885); test: BRD4 region 1 (BRD4-1) inhibition; format: biochemical
PI3Kδ = PI3Kδ (Homo sapiens (Human), UniProt O00329); test: PI3K delta isoform inhibition; format: biochemical
Text: Inhibitory activity can be determined routinely using known methods and also front commercial vendors offering this service for kinases and bromodomain proteins. […] In vivo, PI3K inhibition can be determined from target tissue biopsies by standard tissue processing to disrupt cells and then performing Western Blot analysis to determine the presence or absence of pAKT (substrate of PI3K) relative to a control sample. The activity of a compound of the invention as an inhibitor of a bromodomain-containing protein, such as a BET protein, such as BRD2, BRD3, BRD4, and/or BRDT, or an isoform or mutant thereof may be determined in vitro, in vivo, or in a cell line. In vitro assays include assays that determine inhibition of bromodomain-containing proteins. Alternatively, inhibitor binding may be determined by running a competition experiment where a provided compound is incubated with a bromodomain-containing protein, such as a BET protein bound to known ligands, labeled or unlabeled. For example, bromodomain inhibition can be determined in vitro using Alpha Screen Technology (http://www.reactionbiology.com/webapps/site/NewsPDFs/Bromodomain%20Assay%20Platform%20for%20Drug%/20Screening%20and%20Discovery.pdf). In vivo bromodomain inhibition can be determined indirectly by evaluating the amount of protect present of proteins whose genes' transcription is influenced or controlled by the bromodomain protein, for example, the MYCN protein transcription is controlled by BRD4 (J. E. Delmore et al., Cell 2011, 146, 904-917; A. Puissant, Cancer Discov. 2013, 3, 308-323). Bromodomain inhibition may also be predicted by in silico modeling as described below in the Examples.
Several TP Scaffold compounds (structures shown in FIG. 2 and Table 3) were tested for inhibition activity against isoforms of PI3K (alpha, beta, gamma, and delta isoforms) and the bromodomain protein BRD4 at regions 1 (BRD4-1) and 2 (BRD4-2).

BRD4-2 = BRD4-2 (Homo sapiens (Human), UniProt O60885); test: BRD4 region 2 (BRD4-2) inhibition; format: biochemical
PI3Kγ = PI3Kγ (Homo sapiens (Human), UniProt P48736); test: PI3K gamma isoform inhibition; format: biochemical
PI3Kβ = PI3Kβ (Homo sapiens (Human), UniProt P42338); test: PI3K beta isoform inhibition; format: biochemical
PI3Kα = PI3Kα (Homo sapiens (Human), UniProt P42336); test: PI3K alpha isoform inhibition; format: biochemical
HDAC = HDAC inhibitory activity, commercially available kit; format: biochemical; conditions: for HDAC inhibitory activity: 1, 10, 50 μM
PI-3 kinases = conditions: cited from earlier work
[1] = system: MYCN amplified SKNBE(2) cells; test: Brd4 chromatin precipitation, quantitative PCR of MYCN promoter region; format: cell-based, human; conditions: 24 hours exposure
Description: MYCN amplified SKNBE(2) cells were exposed to inhibitors for 24 hours then chromatin was precipitated with Brd4 (rabbit polyclonal antibody) along with rabbit IgG as a negative control (IgG). Precipitated chromatin was analyzed for the MYCN gene (2 sites within the MYCN promoter region) by quantitative PCR and enrichment is shown as the percentage of total input DNA (FIG. 4). The negative control region primers amplify within a gene desert region approximately 1 Mb away from MYCN (MYC-N NR). Error bars represent ±SEM of triplicate data. P<0.05 as compared to positive control (paired t-test). Positive control: No inhibitor; IP with BRD4 antibody, Negative Control: No inhibitor, IP with rabbit IgG.

breast cancer stem cells = conditions: decreased from 11%; tumors with high HER2; cited from earlier work

Chain of PI3Kβ (P42338 whole entry, canonical isoform): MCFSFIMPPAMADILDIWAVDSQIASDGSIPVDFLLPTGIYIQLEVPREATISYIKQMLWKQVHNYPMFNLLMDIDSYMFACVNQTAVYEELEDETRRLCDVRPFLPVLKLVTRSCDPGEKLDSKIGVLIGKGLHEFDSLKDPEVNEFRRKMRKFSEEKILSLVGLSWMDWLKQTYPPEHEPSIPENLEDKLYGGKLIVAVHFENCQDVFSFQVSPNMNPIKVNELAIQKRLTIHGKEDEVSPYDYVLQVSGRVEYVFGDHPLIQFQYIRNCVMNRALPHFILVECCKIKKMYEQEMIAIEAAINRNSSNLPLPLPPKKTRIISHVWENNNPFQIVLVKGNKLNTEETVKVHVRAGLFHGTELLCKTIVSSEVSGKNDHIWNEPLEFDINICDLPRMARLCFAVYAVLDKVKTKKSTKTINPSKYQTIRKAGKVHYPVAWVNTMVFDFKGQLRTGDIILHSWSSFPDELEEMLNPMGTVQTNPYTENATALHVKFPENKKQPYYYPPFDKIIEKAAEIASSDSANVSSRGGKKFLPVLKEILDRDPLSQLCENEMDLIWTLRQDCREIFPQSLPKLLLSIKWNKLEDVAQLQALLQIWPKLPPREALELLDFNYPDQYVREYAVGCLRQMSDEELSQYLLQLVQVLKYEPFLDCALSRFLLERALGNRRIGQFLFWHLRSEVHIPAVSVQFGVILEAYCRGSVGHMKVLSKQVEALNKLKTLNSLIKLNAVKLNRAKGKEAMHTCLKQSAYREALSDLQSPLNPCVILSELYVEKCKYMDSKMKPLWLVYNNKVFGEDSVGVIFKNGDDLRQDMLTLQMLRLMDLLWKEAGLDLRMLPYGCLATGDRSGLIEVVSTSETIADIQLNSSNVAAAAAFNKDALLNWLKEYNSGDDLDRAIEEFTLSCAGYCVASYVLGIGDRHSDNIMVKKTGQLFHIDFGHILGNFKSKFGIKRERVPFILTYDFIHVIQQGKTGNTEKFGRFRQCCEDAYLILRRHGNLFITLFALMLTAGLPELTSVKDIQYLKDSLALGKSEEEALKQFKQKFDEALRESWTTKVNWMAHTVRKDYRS
Chain of PI3Kβ (P27986 whole entry partner, canonical isoform): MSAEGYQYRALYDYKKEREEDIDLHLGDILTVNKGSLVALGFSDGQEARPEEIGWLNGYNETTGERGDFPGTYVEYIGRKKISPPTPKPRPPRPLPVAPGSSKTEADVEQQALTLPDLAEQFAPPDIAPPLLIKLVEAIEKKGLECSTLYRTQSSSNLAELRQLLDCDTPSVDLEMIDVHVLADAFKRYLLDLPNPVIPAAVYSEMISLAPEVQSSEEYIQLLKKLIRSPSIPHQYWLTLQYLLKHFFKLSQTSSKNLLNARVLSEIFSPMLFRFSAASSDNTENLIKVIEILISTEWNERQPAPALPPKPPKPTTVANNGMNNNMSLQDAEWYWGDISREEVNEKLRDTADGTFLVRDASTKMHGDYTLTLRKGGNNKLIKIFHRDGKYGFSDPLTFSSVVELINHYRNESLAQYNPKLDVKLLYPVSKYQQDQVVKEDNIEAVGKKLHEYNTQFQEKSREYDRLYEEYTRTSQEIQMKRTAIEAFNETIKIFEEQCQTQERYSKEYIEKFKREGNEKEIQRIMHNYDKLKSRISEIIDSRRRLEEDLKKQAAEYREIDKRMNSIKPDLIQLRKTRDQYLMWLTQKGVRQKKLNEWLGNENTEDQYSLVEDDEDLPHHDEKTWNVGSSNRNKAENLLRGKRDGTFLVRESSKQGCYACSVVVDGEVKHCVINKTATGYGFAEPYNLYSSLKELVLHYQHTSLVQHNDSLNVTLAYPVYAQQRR
Chain of PI3Kα (P42336 whole entry, canonical isoform): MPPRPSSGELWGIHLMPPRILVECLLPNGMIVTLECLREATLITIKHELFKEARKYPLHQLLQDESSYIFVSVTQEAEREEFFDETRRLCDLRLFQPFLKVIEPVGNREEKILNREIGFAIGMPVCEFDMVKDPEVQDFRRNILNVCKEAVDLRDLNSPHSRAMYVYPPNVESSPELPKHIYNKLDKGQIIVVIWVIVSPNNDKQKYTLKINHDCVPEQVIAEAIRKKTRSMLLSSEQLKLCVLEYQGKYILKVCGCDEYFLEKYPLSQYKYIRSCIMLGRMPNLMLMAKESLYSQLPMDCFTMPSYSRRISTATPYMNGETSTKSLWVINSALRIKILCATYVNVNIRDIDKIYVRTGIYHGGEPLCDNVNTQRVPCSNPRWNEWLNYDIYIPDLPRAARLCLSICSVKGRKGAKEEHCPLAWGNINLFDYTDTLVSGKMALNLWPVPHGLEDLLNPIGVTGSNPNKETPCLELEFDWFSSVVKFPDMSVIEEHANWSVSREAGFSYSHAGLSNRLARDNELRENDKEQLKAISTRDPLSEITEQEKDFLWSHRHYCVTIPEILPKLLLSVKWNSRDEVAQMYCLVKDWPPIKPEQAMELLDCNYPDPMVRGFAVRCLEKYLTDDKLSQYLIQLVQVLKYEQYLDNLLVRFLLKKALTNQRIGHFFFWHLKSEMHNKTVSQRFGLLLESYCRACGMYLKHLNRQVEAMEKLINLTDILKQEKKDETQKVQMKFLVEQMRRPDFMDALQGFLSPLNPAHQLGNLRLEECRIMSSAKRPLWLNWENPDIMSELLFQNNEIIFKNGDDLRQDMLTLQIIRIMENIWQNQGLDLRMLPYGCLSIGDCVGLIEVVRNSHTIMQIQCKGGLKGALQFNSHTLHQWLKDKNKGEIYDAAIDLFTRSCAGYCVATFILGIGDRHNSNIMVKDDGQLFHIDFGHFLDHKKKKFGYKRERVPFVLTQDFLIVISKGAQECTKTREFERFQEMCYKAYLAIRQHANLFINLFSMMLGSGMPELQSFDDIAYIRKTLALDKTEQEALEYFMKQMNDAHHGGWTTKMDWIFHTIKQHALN
Chain of PI3Kα (P27986 whole entry partner, canonical isoform): as the sequence (P27986 whole entry partner, canonical isoform) above
Chain of PI3Kδ (O00329 whole entry, canonical isoform): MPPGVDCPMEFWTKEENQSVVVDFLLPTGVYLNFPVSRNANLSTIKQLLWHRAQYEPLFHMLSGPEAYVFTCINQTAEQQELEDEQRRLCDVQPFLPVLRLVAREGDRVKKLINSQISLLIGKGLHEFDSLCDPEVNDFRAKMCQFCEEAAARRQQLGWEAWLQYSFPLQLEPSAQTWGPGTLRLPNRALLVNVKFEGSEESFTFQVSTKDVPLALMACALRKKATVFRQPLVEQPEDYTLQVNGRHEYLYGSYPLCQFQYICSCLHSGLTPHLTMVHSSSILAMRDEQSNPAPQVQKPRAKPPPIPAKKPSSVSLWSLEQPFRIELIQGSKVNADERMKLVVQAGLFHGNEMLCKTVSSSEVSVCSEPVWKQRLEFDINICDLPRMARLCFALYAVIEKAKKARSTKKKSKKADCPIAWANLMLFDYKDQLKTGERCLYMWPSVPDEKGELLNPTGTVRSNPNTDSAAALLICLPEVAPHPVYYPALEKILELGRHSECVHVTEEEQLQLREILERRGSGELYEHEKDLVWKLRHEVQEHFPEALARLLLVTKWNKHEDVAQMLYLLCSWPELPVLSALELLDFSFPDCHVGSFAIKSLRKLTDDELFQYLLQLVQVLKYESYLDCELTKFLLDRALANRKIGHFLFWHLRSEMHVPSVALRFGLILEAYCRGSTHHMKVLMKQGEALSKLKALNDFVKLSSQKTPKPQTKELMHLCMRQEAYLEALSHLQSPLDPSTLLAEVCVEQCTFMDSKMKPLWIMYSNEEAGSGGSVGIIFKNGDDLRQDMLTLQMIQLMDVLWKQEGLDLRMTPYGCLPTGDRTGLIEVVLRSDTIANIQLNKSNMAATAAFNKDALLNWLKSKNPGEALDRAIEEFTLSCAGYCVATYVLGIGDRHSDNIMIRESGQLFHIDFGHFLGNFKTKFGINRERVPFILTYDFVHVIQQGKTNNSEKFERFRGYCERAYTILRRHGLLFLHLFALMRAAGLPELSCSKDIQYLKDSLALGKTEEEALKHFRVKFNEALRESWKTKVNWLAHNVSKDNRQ
Chain of PI3Kδ (P27986 whole entry partner, canonical isoform): as the sequence (P27986 whole entry partner, canonical isoform) above
Chain of PI3Kγ (P48736 whole entry, canonical isoform): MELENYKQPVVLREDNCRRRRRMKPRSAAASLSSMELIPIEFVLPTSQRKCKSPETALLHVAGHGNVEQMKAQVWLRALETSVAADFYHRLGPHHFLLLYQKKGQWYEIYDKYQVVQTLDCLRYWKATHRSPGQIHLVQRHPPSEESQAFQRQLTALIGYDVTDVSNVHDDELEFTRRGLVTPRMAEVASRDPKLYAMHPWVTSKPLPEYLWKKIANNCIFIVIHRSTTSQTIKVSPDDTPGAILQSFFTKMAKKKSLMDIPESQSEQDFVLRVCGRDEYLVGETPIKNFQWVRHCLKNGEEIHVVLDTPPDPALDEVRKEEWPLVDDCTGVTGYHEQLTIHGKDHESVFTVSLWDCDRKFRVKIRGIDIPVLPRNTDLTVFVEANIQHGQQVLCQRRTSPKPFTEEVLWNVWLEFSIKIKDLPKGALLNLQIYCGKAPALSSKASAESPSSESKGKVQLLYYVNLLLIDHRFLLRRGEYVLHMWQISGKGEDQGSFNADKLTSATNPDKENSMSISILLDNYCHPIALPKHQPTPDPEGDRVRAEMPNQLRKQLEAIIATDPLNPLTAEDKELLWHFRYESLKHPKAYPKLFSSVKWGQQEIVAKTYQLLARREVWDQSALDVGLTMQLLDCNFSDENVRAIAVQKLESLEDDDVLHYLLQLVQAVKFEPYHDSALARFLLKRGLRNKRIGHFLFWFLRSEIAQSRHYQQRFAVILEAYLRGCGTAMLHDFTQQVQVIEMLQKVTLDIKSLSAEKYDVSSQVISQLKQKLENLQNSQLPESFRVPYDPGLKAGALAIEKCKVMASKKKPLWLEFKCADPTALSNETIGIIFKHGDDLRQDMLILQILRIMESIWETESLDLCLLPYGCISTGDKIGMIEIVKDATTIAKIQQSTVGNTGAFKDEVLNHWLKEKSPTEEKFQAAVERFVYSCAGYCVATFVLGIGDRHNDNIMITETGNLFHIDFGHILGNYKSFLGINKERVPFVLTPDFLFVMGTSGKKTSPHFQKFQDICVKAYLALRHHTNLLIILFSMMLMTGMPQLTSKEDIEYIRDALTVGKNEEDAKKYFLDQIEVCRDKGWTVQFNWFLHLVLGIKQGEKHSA

Row | SMILES | IC50 (BRD4-1) [nM] | IC50 (PI3Kδ) [nM] | IC50 (BRD4-2) [nM] | IC50 (PI3Kγ) [nM] | IC50 (PI3Kα) [nM] | also measured
1 | Cn1c(=O)n(-c2ccc(C(C)(C)C#N)cc2)c2c3cc(-c4cnc5ccccc5c4)ccc3ncc21 [BEZ235] | – | – | – | – | – | pAKT, Western blot (SKNBE (2) cells): decreased pAKT
2 | Nc1cc(C(F)(F)F)c(-c2cc(N3CCOCC3)nc(N3CCOCC3)n2)cn1 [BKM120] | – | – | – | – | – | pAKT, Western blot (SKNBE (2) cells): decreased pAKT; BRD4 inhibition (BRD4): no BRD4 inhibition
3 | CC[C@H](Nc1ncnc2[nH]cnc12)c1nc2cccc(F)c2c(=O)n1-c1ccccc1 [CAL101] | – | – | – | – | – | pAKT, Western blot (SKNBE (2) cells): decreased pAKT; IC50 (BRD4): > 50000 nM; BRD4 inhibition (BRD4): no BRD4 inhibition
4 | O=c1cc(N2CCOCC2)oc2ccsc12 [Cmpd 10] | > 50000 | > 50000 | > 50000 | > 50000 | 7160 | IC50 (PI3Kβ): 9250 nM
5 | O=C(Nc1cccc(-c2csc3c(=O)cc(N4CCOCC4)oc23)c1)Nc1ccc(Cl)c(C(F)(F)F)c1 [Cmpd 123, 1-(4-Chloro-3-trifluoromethyl-phenyl)-3-[3-(5-morpholin-4-yl-7-oxo-7H-thieno[3,2-b]pyran-3-yl)-phenyl]-urea] | > 50000 | 9750 | > 50000 | > 16700 | 7670 | –
6 | O=c1cc(N2CCOCC2)oc2c(Br)csc12 [Cmpd 126, 3-Bromo-5-morpholin-4-yl-thieno[3,2-b]pyran-7-one] | > 50000 | 1480 | > 50000 | 2200 | – | –
7 | O=c1cc(N2CCSCC2)oc2c(Br)csc12 [Cmpd 127, 3-Bromo-5-thiomorpholino-7H-thieno[3,2-b]pyran-7-one] | 32600 | 3300 | 34200 | 9770 | 1720 | –
8 | O=c1cc(N2CCOCC2)oc2c(C#Cc3ccccc3)csc12 [Cmpd 128] | 4000 | – | 10700 | – | – | –
9 | O=C(Nc1cccc(-c2csc3c(=O)cc(N4CCOCC4)oc23)c1)Nc1cccc(C(F)(F)F)c1 [Cmpd 136] | 6150 | – | 1260 | – | – | –
10 | O=c1cc(N2CCOCC2)oc2c(-c3ccccc3)cccc12 [LY294002, 2-(4-morpholinyl)-8-phenyl-4H-1-benzopyran-4-one] | 5330 | 3220 | 13100 | – | – | MYCN protein quantity, Western blot (SKNBE (2) cells): decreased; pAKT, Western blot (SKNBE (2) cells): decreased; IC50 (PI-3 kinases): 1400 nM; MYCN expression (Brd4 ChIP, MYCN promoter) [1]: significantly repressed MYCN expression
11 | O=c1cc(N2CCNCC2)oc2c(-c3ccccc3)cccc12 [LY303511] | – | – | – | – | – | MYCN protein quantity, Western blot (SKNBE (2) cells): inhibited only MYCN quantities; MYCN expression (Brd4 ChIP, MYCN promoter) [1]: significantly repressed MYCN expression
12 | CS(=O)(=O)CCNCc1ccc(-c2ccc3ncnc(Nc4ccc(OCc5cccc(F)c5)c(Cl)c4)c3c2)o1 [Lapatinib] | – | – | – | – | – | breast cancer stem cells, % of cells after treatment (breast cancer stem cells): 5%

More lines, in order of falling IC50 (BRD4-1), values ahead:

Row | IC50 (BRD4-1) [nM] | IC50 (PI3Kδ) [nM] | IC50 (BRD4-2) [nM] | IC50 (PI3Kγ) [nM] | IC50 (PI3Kα) [nM] | SMILES | also measured
13 | 2570 | 1350 | 4880 | 8650 | 950 | CC(C)(C)c1cc(NC(=O)Nc2cccc(-c3csc4c(=O)cc(N5CCOCC5)oc34)c2)no1 [Cmpd 122, 1-(5-tert-Butyl-isoxazol-3-yl)-3-[3-(5-morpholin-4-yl-7-oxo-7H-thieno[3,2-b]pyran-3-yl)-phenyl]-urea] | –
14 | 2230 | – | 9410 | – | – | O=c1cc(N2CCOCC2)oc2c(-c3ccn[nH]3)csc12 [Cmpd 129, 5-Morpholino-3-(2H-pyrazol-3-yl)-4-oxa-1-thia-7-Indenone] | –
15 | 2170 | 784 | 3450 | 1570 | – | O=c1cc(N2CCOCC2)oc2c(-c3ccccc3)csc12 [Cmpd 6] | IC50 (PI3Kβ): 378 nM
16 | 1090 | 295 | 2760 | 259 | 55.2 | O=C(O)c1ccc(-c2csc3c(=O)cc(N4CCOCC4)oc23)cc1 [Cmpd 100] | –
17 | 843 | 9810 | 1740 | 6300 | – | Nc1cccc(-c2csc3c(=O)cc(N4CCOCC4)oc23)c1 [Cmpd 11, 3-(3-Amino-phenyl)-5-morpholin-4-yl-thieno[3,2-b]pyran-7-one] | –
18 | 811 | 12 | 1470 | 547 | – | COC(=O)c1ccc(-c2csc3c(=O)cc(N4CCOCC4)oc23)cc1 [Cmpd 44, methyl 4-(5-morpholino-7-oxo-7H-thieno[3,2-b]pyran-3-yl)benzoate] | BRD4 inhibition (BRD4): showed activity; IC50 (PI3Kβ): 3600 nM; HDAC inhibitory activity (HDAC): No inhibitor activity
19 | 748 | – | 1260 | – | – | Cc1ccc(C)c(NC(=O)Nc2cccc(-c3csc4c(=O)cc(N5CCOCC5)oc34)c2)c1 [Cmpd 137, 5-Morpholino-3-{m-[3-(2,5-xylyl)ureido]phenyl}-4-oxa-1-thia-7-indenone] | –
20 | 662 | – | 1850 | – | – | CN(C)C(=O)Nc1cccc(-c2csc3c(=O)cc(N4CCOCC4)oc23)c1 [Cmpd 134, 3-[m-(3-Dimethylureido)phenyl]-5-morpholino-4-oxa-1-thia-7-indenone] | –
21 | 646 | – | 1270 | – | – | Cc1cccc(NC(=O)Nc2cccc(-c3csc4c(=O)cc(N5CCOCC5)oc34)c2)c1 [Cmpd 135, 5-Morpholino-3-{m-[3-(m-tolyl)ureido]phenyl}-4-oxa-1-thia-7-indenone] | –
22 | 558 | – | 1120 | – | – | CNC(=O)Nc1cccc(-c2csc3c(=O)cc(N4CCOCC4)oc23)c1 [Cmpd 133, 3-[m-(3-Methylureido)phenyl]-5-morpholino-4-oxa-1-thia-7-indenone] | –
23 | 519 | 480 | 2800 | 4630 | 1580 | O=c1cc(N2CCSCC2)oc2c(-c3ccc4c(c3)OCCO4)csc12 [Cmpd 124, 3-(2,3-Dihydrobenzo[b][1,4]dioxan-6-yl)-5-thiomorpholino-7H-thieno[3,2-b]pyran-7-one] | –
24 | 349 | – | 695 | – | – | Cn1ncc2ccc(-c3csc4c(=O)cc(N5CCOCC5)oc34)cc21 [Cmpd 130, 3-(1-Methyl-1H-indazol-6-yl)-5-morpholino-4-oxa-1-thia-7-Indenone] | –
25 | 326 | 21 | 393 | 556 | 95 | O=C(Nc1ccc(-c2csc3c(=O)cc(N4CCOCC4)oc23)cc1)c1ccncc1 [Cmpd 120] | –
26 | 277 | 27 | 628 | 1170 | – | CCOC(=O)c1ccc(-c2csc3c(=O)cc(N4CCOCC4)oc23)cc1 [Cmpd 25] | IC50 (PI3Kβ): 1750 nM
27 | 255 | – | 2310 | – | < 10000 | O=C(Nc1ccc(-c2csc3c(=O)cc(N4CCOCC4)oc23)cc1)c1ccc(F)c(F)c1Nc1ccc(I)cc1F [Cmpd 121] | –
28 | 231 | – | 446 | – | – | Cc1n[nH]c2cc(-c3csc4c(=O)cc(N5CCOCC5)oc34)ccc12 [Cmpd 131, 3-(3-Methyl-1H-indazol-6-yl)-5-morpholino-4-oxa-1-thia-7-Indenone] | –
29 | 193 | 53 | 235 | 806 | 90 | O=C(NO)c1ccc(-c2csc3c(=O)cc(N4CCOCC4)oc23)cc1 [Cmpd 118] | HDAC activity inhibited versus control (HDAC; 1 μM): 17%; HDAC activity inhibited versus control (HDAC; 10 μM): 25%; HDAC activity inhibited versus control (HDAC; 50 μM): 41%; HDAC inhibitory activity (HDAC): significant HDAC inhibitory activity
